The term IC50 denotes the midpoint of a concentration-inhibition curve.

Drawing on US10689377B2 (Mirati Therapeutics, Inc., priority 2017, dated 2020), this text covers IC50 for 18 molecules.

Structures are written as SMILES.

Chain of KRas G12C (P01116 1-188 isoform P01116-2 G12C): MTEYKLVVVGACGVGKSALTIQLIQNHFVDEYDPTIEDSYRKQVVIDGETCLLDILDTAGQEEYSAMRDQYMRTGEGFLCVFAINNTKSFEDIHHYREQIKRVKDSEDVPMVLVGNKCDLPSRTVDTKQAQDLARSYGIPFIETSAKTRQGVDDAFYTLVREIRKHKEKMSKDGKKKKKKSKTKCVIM

The assay deals with KRas G12C (Homo sapiens, UniProt P01116, G12C). Description: Cellular inhibition of KRas G12C measured by Phospho-ERK in NCI-H358 cells. Format: cell-based. The settings on record: pERK(Thr202/Tyr204) normalized with GAPDH, NCI-H358 cells, 3 hours; read-out: IC50. In outline:
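NCI-H358 cells were allowed to attach for 8-12 hours, then exposed to compounds for 3 hours at 0.5% DMSO final. After formaldehyde fixation and methanol permeabilization, phospho-ERK (Thr202/Tyr204) was detected by in-cell immunofluorescence and normalized to GAPDH; IC50 came from a 4-parameter fit of percent-of-DMSO values.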
For the molecule `C=C(F)C(=O)N1CCN(c2nc(OC[C@@H]3[C@H](O)CC(=O)N3C)nc3c2CCN(c2cccc4cccc(C)c24)C3)C[C@@H]1CC#N` [Example 570, 2-[(2S)-1-(2-Fluoroprop-2-enoyl)-4-[2-[[(2R,3R)-3-hydroxy-1-methyl-5-oxo-pyrrolidin-2-yl]methoxy]-7-(8-methyl-1-naphthyl)-6,8-dihydro-5H-pyrido[3,4-d]pyrimidin-4-yl]piperazin-2-yl]acetonitrile], the IC50 is > 1 µM.
The result for `C=CC(=O)N1CCN(c2nc(O[C@H](C)CN(C)C)nc3c2CCN(c2cccc4ccccc24)C3)CC1CC#N` (stereo partly drawn) [Example 151, 2-(1-acryloyl-4-(2-(((R)-1-(dimethylamino)propan-2-yl)oxy)-7-(naphthalen-1-yl)-5,6,7,8-tetrahydropyrido[3,4-d]pyrimidin-4-yl)piperazin-2-yl)acetonitrile] reads > 1 µM; that for `C=CC(=O)N1CCN(c2nc(OC[C@@H]3CCCN3C)nc3c2CCN(c2cccc4ccc(F)cc24)C3)C[C@@H]1CC#N` [Example 333, 2-[(2S)-4-[7-(7-fluoro-1-naphthyl)-2-[[(2S)-1-methylpyrrolidin-2-yl]methoxy]-6,8-dihydro-5H-pyrido[3,4-d]pyrimidin-4-yl]-1-prop-2-enoyl-piperazin-2-yl]acetonitrile], 0.0001 to 1 µM; that for `C=CC(=O)N1CCN(c2nc(OCCCN3CCOCC3)nc3c2CCN(c2cc(O)cc4ccccc24)C3)C(CO)C1` (stereo not drawn) [Example 168, 1-(3-(hydroxymethyl)-4-(7-(3-hydroxynaphthalen-1-yl)-2-(3-morpholinopropoxy)-5,6,7,8-tetrahydropyrido[3,4-d]pyrimidin-4-yl)piperazin-1-yl)prop-2-en-1-one], > 1 µM.
The result for `C=CC(=O)N1CCN(c2nc(-c3cccc(CN4CCOCC4)c3)nc3c2CCN(c2cc(O)cc4ccccc24)C3)CC1` [Example 186] reads > 1 µM.
The result for `C=CC(=O)N1CCN(c2nc(O[C@H](C)CN(C)C)nc3c2CCN(c2cc(O)cc(Cl)c2C(C)C)C3)CC1` [Example 76, (R)-1-(4-(7-(3-chloro-5-hydroxy-2-isopropylphenyl)-2-((1-(dimethylamino)propan-2-yl)oxy)-5,6,7,8-tetrahydropyrido[3,4-d]pyrimidin-4-yl)piperazin-1-yl)prop-2-en-1-one] reads > 1 µM.
As for `Cc1cccc2cccc(N3CCc4c(nc(OC[C@@H]5CCCN5C)nc4N4CCN(C(=O)/C=C/CN5CCOCC5)[C@@H](CC#N)C4)C3)c12` [Example 460, 2-[(2S)-4-[7-(8-methyl-1-naphthyl)-2-[[(2S)-1-methylpyrrolidin-2-yl]methoxy]-6,8-dihydro-5H-pyrido[3,4-d]pyrimidin-4-yl]-1-[(E)-4-morpholinobut-2-enoyl]piperazin-2-yl]acetonitrile], the IC50 lay within 0.0001 to 1 µM.
`C=CC(=O)N1CCN(c2nc(OC[C@@H]3CCCN3CC)nc3c2CCN(c2cccc(Cl)c2C(F)(F)F)C3)C[C@@H]1CC#N` [Example 339, 2-((S)-1-acryloyl-4-(7-(3-chloro-2-(trifluoromethyl)phenyl)-2-(((S)-1-ethylpyrrolidin-2-yl)methoxy)-5,6,7,8-tetrahydropyrido[3,4-d]pyrimidin-4-yl)piperazin-2-yl)acetonitrile]: the IC50 lay within 0.0001 to 1 µM.
Regarding `C=C(C(=O)N1CCN(c2nc(OC[C@@H]3CCCN3C)nc3c2CCN(c2cccc4cccc(C)c24)C3)C[C@@H]1CC#N)C(F)(F)F` [Example 492, 2-((S)-4-(7-(8-methylnaphthalen-1-yl)-2-(((S)-1-methylpyrrolidin-2-yl)methoxy)-5,6,7,8-tetrahydropyrido[3,4-d]pyrimidin-4-yl)-1-(2-(trifluoromethyl)acryloyl)piperazin-2-yl)acetonitrile], the IC50 fell in the range of 0.0001 to 1 µM.
The result for `C=CC(=O)N1CCN(c2nc(OCCCO)nc3c2CCN(c2cc(O)cc4ccccc24)C3)CC1` [Example 184, 1-[4-[7-(3-hydroxy-1-naphthyl)-2-(3-hydroxypropoxy)-6,8-dihydro-5H-pyrido[3,4-d]pyrimidin-4-yl]piperazin-1-yl]prop-2-en-1-one] reads > 1 µM; that for `C=CC(=O)N1CCN(c2nc(OC[C@@H]3CCCCN3C)nc3c2CCN(c2cc(O)cc4ccccc24)C3)CC1` [Example 196, (S)-1-(4-(7-(3-hydroxynaphthalen-1-yl)-2-((1-methylpiperidin-2-yl)methoxy)-5,6,7,8-tetrahydropyrido[3,4-d]pyrimidin-4-yl)piperazin-1-yl)prop-2-en-1-one], 0.0001 to 1 µM; that for `C=CC(=O)N1CCN(c2nc(OCCCN3CCOCC3)nc3c2CCN(c2c(C)ccc4[nH]ncc24)C3)CC1` [Example 44, 1-(4-(7-(5-methyl-1H-indazol-4-yl)-2-(3-morpholinopropoxy)-5,6,7,8-tetrahydropyrido[3,4-d]pyrimidin-4-yl)piperazin-1-yl)prop-2-en-1-one], > 1 µM.
For the molecule `C=CC(=O)N1CCN(c2nc(OC[C@@H]3CCCN3C)nc3c2CCN(c2cnccc2C#N)C3)C[C@@H]1CC#N` [Example 305, 3-(4-((S)-4-acryloyl-3-(cyanomethyl)piperazin-1-yl)-2-(((S)-1-methylpyrrolidin-2-yl)methoxy)-5,6-dihydropyrido[3,4-d]pyrimidin-7(8H)-yl)isonicotinonitrile], the IC50 is > 1 µM.
`C=CC(=O)N1CCN(c2nc(O[C@H](C)CN(C)C)nc3c2CCN(c2cccc4ccccc24)C3)CC1` [Example 68, (R)-1-(4-(2-((1-(dimethylamino)propan-2-yl)oxy)-7-(naphthalen-1-yl)-5,6,7,8-tetrahydropyrido[3,4-d]pyrimidin-4-yl)piperazin-1-yl)prop-2-en-1-one]: the IC50 is > 1 µM.
Consider `C=CC(=O)N1CCN(c2nc(OCCCN3CCOCC3)nc3c2CCN(c2cc(O)ccc2F)C3)CC1` [Example 42, 1-(4-(7-(2-fluoro-5-hydroxyphenyl)-2-(3-morpholinopropoxy)-5,6,7,8-tetrahydropyrido[3,4-d]pyrimidin-4-yl)piperazin-1-yl)prop-2-en-1-one], for which the IC50 is > 1 µM.
The result for `C=CC(=O)N1CCN(c2nc(N3CCOCC3)nc3c2CCN(c2cc(O)cc4ccccc24)C3)CC1` [Example 118, 1-(4-(7-(3-hydroxynaphthalen-1-yl)-2-morpholino-5,6,7,8-tetrahydropyrido[3,4-d]pyrimidin-4-yl)piperazin-1-yl)prop-2-en-1-one] reads > 1 µM; that for `C=CC(=O)N1CCN(c2nc(OC[C@H]3CCCN3C)nc3c2CCN(c2cccc(F)c2C(F)(F)F)C3)C[C@@H]1CC#N` [Example 274, 2-((S)-1-acryloyl-4-(7-(3-fluoro-2-(trifluoromethyl)phenyl)-2-(((R)-1-methylpyrrolidin-2-yl)methoxy)-5,6,7,8-tetrahydropyrido[3,4-d]pyrimidin-4-yl)piperazin-2-yl)acetonitrile], 0.0001 to 1 µM; that for `C=CC(=O)N1CCN(c2nc(O[C@H](C)CN(C)C)nc3c2CCN(c2cc(O)ccc2C(F)(F)F)C3)CC1` [Example 79, (R)-1-(4-(2-((1-(dimethylamino)propan-2-yl)oxy)-7-(5-hydroxy-2-(trifluoromethyl)phenyl)-5,6,7,8-tetrahydropyrido[3,4-d]pyrimidin-4-yl)piperazin-1-yl)prop-2-en-1-one], > 1 µM.
